{
  "source": "patent US20120321584A1",
  "about": "“PROCESSES FOR PREPARING AMINE SALTS OF KMUP-3 AND USE THEREOF” (KAOHSIUNG MEDICAL UNIVERSITY, priority 2011, published 2012)",
  "key": {"[1]": {"tested_on": "electrically-stimulated left atria", "experiment": "Electrically-stimulated beating left atrium, organ bath", "format": "cell-based, guinea-pig", "conditions": "for Effect of pretreatment on KMUP-3-induced positive inotropic activity: propranolol and Y27632 1 μM, C3 exoenzyme 50 μg/mL, ketanserin 1.0 μM, L-NAME 100 μM; for Effect of pretreatment on KMUP-3-induced contractility: sGC inhibitor ODQ, eNOS inhibitor L-NAME", "description": "(§1) Organ bath experiments and tissue procurement. Guinea-pigs were killed by a blow on the head. Their hearts were quickly excised and trimmed of excess tissues. The atrium was carefully removed and placed at room temperature (20˜25° C.) in a Krebs solution of the following composition (mM): NaCl 113, KCl 4.8, CaCl2 2.2, KH2PO4 1.2, MgCl2 1.2, NaHCO3 25, dextrose 11.0; bubbled with a 95% O2+5% CO2 mixture, followed by separation of right and left atrium for subsequent experiments.\nQuiescent left atria free of connective tissues were dissected and mounted in an organ bath under a resting tension of 0.5 g. Organs were bathed at 32.5° C. in aerated Krebs solution and electrically stimulated with 1 Hz at […] via two platinum electrodes placed at either side. The positive inotropic effect was measured by determining the cumulative concentration-response curves in the presence of KMUP-3 or KMUP-3 amine salt (0.1, 1.0, 10, 100 μM). To examine the possible involvement of NO and cAMP/cGMP in the action of KMUP-3 or KMUP-3 amine salt on electrically-stimulated beating atria, pre-incubated with a ROCK inhibitor Y27632 (1.0 μM), a β-adrenoceptor blocker propranolol (1.0 μM), eNOS inhibitors L-NAME (100 μM), 7-nitroindazole (100 μM) and 5-HT inhibitor ketanserin (1.0 μM) was performed for 15 min prior to the addition of KMUP-3 or KMUP-3 amine salt to measure the development of beating force and heart rate for 10 min."}, "[2]": {"tested_on": "PKG", "experiment": "PKG expression in beating left atrium, Western blotting", "format": "cell-based, guinea-pig", "conditions": "L-NAME pretreatment", "description": "(§2) Protein extraction and Western blotting analysis. Briefly, after incubation with test agents in an organ bath, isolated beating atrium was frozen and pulverized to a fine powder at the temperature of liquid nitrogen. Atrium powders were then homogenized in protein extraction reagent (Pierce Biotechnology, Inc., Rockford, Ill.) by sonication. The samples were sonicated 10 sec three times and centrifuged at 13,000 rpm at 4° C. for 30 min. The protein concentrations of supernatants were determined by using bovine serum albumin as the standard. The cell extracts were then boiled in a ratio of 4:1 with sample buffer (Tris 100 mM, pH 6.8; glycerol 20%, Sodium dodecyl sulfate (SDS) 4% and bromophenol blue 0.2%). Electrophoresis was performed using 10% SDS-PAGE and transferred to nitrocellulose membranes (Millipore Corp., Billerica, Mass.). […] The intensity of the bands was measured by densitometry. eNOS or phosphorylated eNOS were extracted from cell culture of neonatal myocytes, PA ring and aortic ring (2-3 mm) of rats and measured by Western blotting analysis.\n(§3) PK, ROCKII and CIP-17 expression and pretreatment of beating left atrium. To examine whether KMUP-3 or KMUP-3 amine salt affects the protein expression in beating atrium, PKA, ROCKII, PKG and phosphorylated CIP-17 was determined by Western blotting, respectively. […]"}, "[3]": {"tested_on": "phosphorylated eNOS (p-eNOS)", "experiment": "Phosphorylated eNOS expression in neonatal myocytes, Western blotting", "format": "cell-based, rat", "conditions": "L-NAME 100 μM pretreatment", "description": "(§4) eNOS/p-NOS and cAMP/cGMP in neonatal myocytes. To determine the role of the NO/cGMP-pathway in heart, neonatal rat myocyte protein was extracted followed by Western blotting to measure the expression of eNOS, phosphorylated eNOS (p-eNOS), cAMP, and cGMP (FIG. 14 A-14 B and FIG. 15 A-15 B). KMUP-3 increased eNOS and p-eNOS in neonatal rat cardiomyocytes and the effect was reduced by L-NAME (100 μM)-pretreatment (FIG. 14A and FIG. 14B). KMUP-3 increased both cAMP and cGMP.\nas §2, with “standard.” for “standard. The cell extracts were then boiled in a ratio of 4:1 with sample buffer (Tris 100 mM, pH 6.8; glycerol 20%, Sodium dodecyl sulfate (SDS) 4% and bromophenol blue 0.2%). Electrophoresis was performed using 10% SDS-PAGE and transferred to nitrocellulose membranes (Millipore Corp., Billerica, Mass.).”"}, "[4]": {"tested_on": "eNOS", "experiment": "eNOS expression in neonatal myocytes, Western blotting", "format": "cell-based, rat", "conditions": "L-NAME 100 μM pretreatment", "description": "as §4\nas §2, with “standard.” for “standard. The cell extracts were then boiled in a ratio of 4:1 with sample buffer (Tris 100 mM, pH 6.8; glycerol 20%, Sodium dodecyl sulfate (SDS) 4% and bromophenol blue 0.2%). Electrophoresis was performed using 10% SDS-PAGE and transferred to nitrocellulose membranes (Millipore Corp., Billerica, Mass.).”"}, "[5]": {"experiment": "Hemodynamic measurements in anesthetized rats (LVSP, dP/dt, MABP, HR)", "format": "in vivo, Wistar rats", "conditions": "intravenous pretreatment at 1 mg/kg; KMUP-3 1 mg/kg, i.v.", "description": "Hemodynamic measurements were carried out in male Wistar rats weighting 300˜350 g, anesthetized with pentobarbital sodium (40 mg kg^−1, i.p.). In brief, polyethylene tubing (PE50) was placed in the trachea to keep the airway patent, and rats continued to breathe spontaneously. Subsequently, rats were used to record hemodynamic and cardiovascular function. Vascular catheters (PE50) were placed in the femoral arteries to measure mean arterial blood pressure (MABP) and heart rate (HR). Changes of MABP and HR caused by KMUP-3 or KMUP-3 amine salt were recorded from the femoral artery with a pressure transducer (Gould, Model P50, U.S.A.), connected with a Pressure Processor Amplifier (Gould, Model 13-4615-52, U.S.A.). A femoral vein was used for intravenous administration of KMUP-3 or KMUP-3 amine salt. A specialized transducer tip catheter was placed in the right carotid artery and advanced into the left ventricle of the heart for measurement of left ventricular pressure (LVSP) or contractility; dP/dt at 50 mm Hg, an index of cardiac contractility, was derived from the left ventricular pressure trace; post-hoc vascular resistance was calculated as mean arterial blood pressure/peripheral cardiac output (MABP/PCO). Body temperature was monitored throughout the experiment and maintained between 37 and 37.5° C. by using a heating pad.\nEach dose of active drugs was administered as a 20-min infusion in a series of escalating doses dissolved in a 5% dextrose water vehicle. […] KMUP-3 HCl or KMUP-3 amine salt were infused at 0.03, 0.05, and 0.075 μg/kg/20 min for the measurement of FABP, intraperitoneally injected at 0.03, 0.05 and 0.1 mg/kg for the measurement of MABP and HR and infused by intravenous injection for 2 min at 0.5, 1.0, 3.0 mg/kg dissolved in 5% dextrose water vehicle (2 ml) for the measurement of LV systolic pressure (LVSH), ABP, dP/dt, and HR. The primary hemodynamic variables were computed using commercial software and a signal processing workstation. Animals were randomly divided into one of six treatment or vehicle groups. After the completion of the surgical protocol, animals were allowed to stabilize for 1 h, and baseline data were collected at 5-min intervals for 30 min before the treatment."}, "[6]": {"tested_on": "PKCα", "experiment": "PKCα translocation of beating left atrium", "format": "cell-based, guinea-pig", "conditions": "Y27632 1-10 μM", "description": "To determine the effect of KMUP-3 or KMUP-3 amine salt on PKCa translocation, isolated left beating atrium was incubated with KMUP-3 or KMUP-3 amine salt for 30 minutes (0.1-10 μM). In brief, frozen left atrium was pulverized to a fine powder at the temperature of liquid nitrogen for preparation of cytosolic and membrane fractions. Isolated left atrium tissues were then homogenized by a sonicator (XL-2020, Heat Systems Ultrasonic, Plainview, N.Y., USA) at 4 in 1 ml of homogenization buffer containing 20 mM Tris-HCl (pH 7.5), 1 mM dithiothreitol (DTT), 5 mM EGTA, 2 mM EDTA, 0.5 mM PMSF, 20 μM leupeptin and 20 μM aprotinin. The cytosol fractions were obtained by collecting the supernatants after centrifuging the cells at 100,000×g for 45 minutes at 4. The pellets were resonicated in the homogenizing buffer with 1% Triton X-100, centrifuged again at 100,000×g for 45 minutes at 4, and the supernatants collected as membrane fractions. The extracts for cytosol and membrane fractions were denatured by heating at for 10 minutes in sampling buffer, and an aliquot containing 20 μg of total protein was subjected to a 10% SDS-polyacrylamide gel electrophoresis. […] Protein was detected with horseradish peroxidase (HRP) conjugated secondary antibody (BD Transduction Laboratories). […] The immunoreactive bands were detected by chemiluminescence (ECL) reagents (PerkinElmer Life Sciences, Inc)."}, "[7]": {"tested_on": "PKA", "experiment": "PKA expression in electrically-stimulated left atria, Western blotting", "format": "cell-based, guinea-pig", "conditions": "Y27632 1-100 μM", "description": "(§5) Protein extraction and Western blotting analysis. Briefly, after incubation with test agents in an organ bath, isolated beating atrium was frozen and pulverized to a fine powder at the temperature of liquid nitrogen. Atrium powders were then homogenized in protein extraction reagent (Pierce Biotechnology, Inc., Rockford, Ill.) by sonication. The samples were sonicated 10 sec three times and centrifuged at 13,000 rpm at 4° C. for 30 min. The protein concentrations of supernatants were determined by using bovine serum albumin as the standard. The cell extracts were then boiled in a ratio of 4:1 with sample buffer (Tris 100 mM, pH 6.8; glycerol 20%, Sodium dodecyl sulfate (SDS) 4% and bromophenol blue 0.2%). Electrophoresis was performed using 10% SDS-PAGE and transferred to nitrocellulose membranes (Millipore Corp., Billerica, Mass.). The membrane was blocked with Tris-buffered saline (TBS; 20 mM Tris and 137 mM NaCl, pH 7.6) containing 0.1% Tween 20 (TTBS) and 5% nonfat milk at room temperature for 1 h, washed with TTBS, and then incubated overnight at 4° C. in the appropriate primary antibody for PKARI, RhoA, ROCKII, p-CIP-17, CPI-17 and PKG1α1β. The membranes were washed in TTBS before being incubated with horseradish peroxidase-conjugated antibody against mouse, goat, or rabbit IgG for 1 hr. Membranes were then washed in TTBS and developed with the enhanced chemiluminescence for the detection of the specific antigen. The intensity of the bands was measured by densitometry. eNOS or phosphorylated eNOS were extracted from cell culture of neonatal myocytes, PA ring and aortic ring (2-3 mm) of rats and measured by Western blotting analysis.\nas §3"}, "[8]": {"tested_on": "ROCKII", "experiment": "ROCKII expression in electrically-stimulated left atria, Western blotting", "format": "cell-based, guinea-pig", "conditions": "Y27632 1-100 μM", "description": "as §5, §3"}, "[9]": {"tested_on": "L-type Ca2+ channels", "experiment": "Ca2+ entry currents in H9c2 cells, whole cell patch-clamp", "format": "cell-based, rat", "conditions": "KMUP-3 10 μM with KT5823 3 μM or Y27642 50 μM", "from_the_text": "To measure the ICa through L-type Ca^2+ channels, whole cell patch-clamp electrophysiology was used in rat heart-derived H9c2 cells as previously described. In brief, H9c2 cells were placed in a recording dish and perfused with a bath solution containing (in mM): 135 tetraethylammonium (TEA)-Cl, 1.8 CaCl2, 2 MgCl2, 10 glucose, and 10 HEPES (pH 7.4, Tris). […] Negative pressure was briefly applied to rupture the membrane and a gigaohm seal was obtained.\nH9c2 cells were clamped at −80 mV with step depolarizations (300 ms) from −80 to 0 mV to evoke whole-cell ICa. Voltage clamped cells were equilibrated for 15 min prior to experimentation. Membrane currents were recorded on an Axopatch 700A amplifier (Axon Instruments, Union City, Calif.), filtered at 1 kHz using a low-pass Bessel filter, digitized at 5 kHz and stored on a computer for subsequent analysis with Clampfit 9.0. Following equilibration, ICa was monitored in the presence and absence of KMUP-3 or KMUP-3 amine salt (1, 10, 100 μM). To ascertain whether PKG or ROCK signaling was involved in the KMUP-3-induced decreases in ICa, H9c2 cells were incubated for 15 min with the combination of KMUP-3 or KMUP-3 amine salt (10 μM) and PKG antagonist KT5823 (3 μM) or ROCK inhibitor Y-27632 (50 μM). All electrical recordings were performed at room temperature."}, "[10]": {"tested_on": "isolated spontaneously beating right atrium", "experiment": "Spontaneously beating right atrium, organ bath", "format": "cell-based, guinea-pig", "conditions": "atropine 1 μM; 7-nitroindazole 100 μM", "description": "as §1\nSpontaneously beating right atrium was dissected from the heart and mounted in a 10 ml organ bath with one end fixed and the other end connected to a force displacement transducer (Grass, Model FT03). The frequency of contraction was measured on a separate channel by a tachometer (Coulbourn, Model S77-26) connected to a high-speed videograph (Coulbourn, AT L19-69). These experiments were carried out at 32.5° C. in Krebs solution. The atria strip was pre-stretched to a baseline tension of 0.5 g and equilibrated for 90 min in aerated (95% O2+5% CO2) Krebs solution before the experimental protocols were initiated. The atria were then allowed a 30-60 min washout period to re-stabilize. KMUP-3 or KMUP-3 amine salt (0.1, 1.0, 10, 100 μM) were then cumulatively added to the organ bath. […]"}},
  "data": [
    {"smiles": "COC(=O)[C@@H](N)CCCNC(=N)N[N+](=O)[O-]", "note": "[L-NAME]", "values": [
      {"measurement": "Effect of pretreatment on KMUP-3-induced positive inotropic activity", "setting": "[1]", "result": "reduced"},
      {"measurement": "Effect of pretreatment on KMUP-3-induced contractility", "setting": "[1]", "result": "inhibited"},
      {"measurement": "Effect of pretreatment on expression of PKG", "setting": "[2]", "result": "reduced"},
      {"measurement": "Effect of pretreatment on KMUP-3-increased p-eNOS", "setting": "[3]", "result": "reduced"},
      {"measurement": "Effect of pretreatment on KMUP-3-increased eNOS", "setting": "[4]", "result": "reduced"}
    ]},
    {"smiles": "CC(C)NCC(O)COc1cccc2ccccc12", "note": "(stereo not shown) [propranolol, reference compound]", "values": [
      {"measurement": "Effect of pretreatment on the effects (LVSP, dP/dt, MABP) induced by KMUP-3", "setting": "[5]", "result": "inhibited"},
      {"measurement": "Effect of pretreatment on KMUP-3-induced positive inotropic activity", "setting": "[1]", "result": "reduced"}
    ]},
    {"smiles": "C[C@@H](N)[C@H]1CC[C@H](C(=O)Nc2ccncc2)CC1", "note": "[Y27632, reference compound]", "values": [
      {"measurement": "Effect of pretreatment on the effects (LVSP, dP/dt, MABP) induced by KMUP-3", "setting": "[5]", "result": "inhibited"},
      {"measurement": "Effect of pretreatment on KMUP-3-induced positive inotropic activity", "setting": "[1]", "result": "reduced"},
      {"measurement": "Effect of pretreatment on KMUP-3-induced translocation of PKCα", "setting": "[6]", "result": "insignificantly prevented"},
      {"measurement": "Effect on KMUP-3-induced expression of PKA", "setting": "[7]", "result": "inhibited"},
      {"measurement": "Effect on KMUP-3-induced expression of ROCK II", "setting": "[8]", "result": "inhibited"},
      {"measurement": "Effect of combination on currents reduced by KMUP-3", "setting": "[9]", "result": "restored"}
    ]},
    {"smiles": "O=[N+]([O-])c1cccc2cn[nH]c12", "note": "[7-nitroindazole]", "values": [
      {"measurement": "Effect of combination on left atria contractility increased by KMUP-3", "setting": "[1]; KMUP-3 10 μM with 7-nitroindazole 100 μM", "result": "reduced"},
      {"measurement": "Effect of pretreatment on the beating frequency decreased by KMUP-3", "setting": "[10]", "result": "up-regulated"}
    ]},
    {"smiles": "O=c1onc2cnc3ccccc3n12", "note": "[ODQ]", "values": [
      {"measurement": "Effect of pretreatment on KMUP-3-induced contractility", "setting": "[1]", "result": "inhibited"}
    ]}
  ]
}
